Literature values as cited in patent US20070025948A1, “Dilution-type sterilizer composition” (Dainippon Sumitomo Pharma Co. Ltd, priority 2003, published 2007).
Where a name gives a salt, the structure may show the parent alone. Read-outs that look alike come from different tables or passages of the source.

Key:
[1] = 20° C.
[2] = hydrophilic-lipophilic balance, from new Surfactant Handbook

| Compound | solubility in water [1] | HLB [2] | also measured |
| --- | --- | --- | --- |
| [H]/N=C(\N/C(=N/[H])NCCCCCCNC(=N)NC(=N)Nc1ccc(Cl)cc1)Nc1ccc(Cl)cc1 [Chlorhexidine] | 0.08 w/v % |  |  |
| [H]/N=C(\N/C(=N/[H])NCCCCCCNC(=N)NC(=N)Nc1ccc(Cl)cc1)Nc1ccc(Cl)cc1 [chlorhexidine gluconate] | not less than 50 w/v % |  |  |
| [H]/N=C(\N/C(=N/[H])NCCCCCCNC(=N)NC(=N)Nc1ccc(Cl)cc1)Nc1ccc(Cl)cc1 [chlorhexidine hydrochloride] |  |  | solubility in water ([1]; hydrochloride): 0.06 w/v % |
| CCCCCCCCCCCCOS(=O)(=O)[O-].[Na+] [sodium lauryl sulfate] |  | ~40 |  |
| CCCCCCCCCCCCCCCCCC(=O)[O-].[Na+] [sodium stearate] |  | 18 |  |
